In PMC12251482, “Floridoside Phosphotriester Derivatives: Synthesis and Inhibition of Human Neutrophils’ Oxidative Burst” (Molecules, 2025):

Legend:
[1] = tested on: PMA-stimulated human neutrophils; assay: HOCl generation by PMA-stimulated neutrophils, oxidation of APF; assay type: cell-based; settings: PMA 160 nM, mean ± SEM
Experimental: APF is a non-fluorescent derivative of fluorescein, which is oxidized by HOCl, ONOO^−, and HO^• [87], in a concentration-dependent manner. Its selectivity was tested using the myeloperoxidase (MPO) inhibitor, 4-aminobenzoic acid hydrazide (ABAH). The addition of ABAH to human neutrophils, stimulated with PMA, decreased the APF-dependent fluorescence signal to the level of the control assay, ruling out the involvement of HO^• and ONOO^− [88]. The previously established methodology for monitoring oxidative burst modulation was adapted. In a 96-well plate, neutrophils (2 × 10^6 cells/mL) were incubated in the dark at 37 °C for 5 min with APF (2 μM) and the tested compounds (10–100 μM) or DMSO (4%). Quercetin (0.3–5.0 μM) and DPI (0.01–10 μM) were used as controls. After incubation, PMA (160 nM) was added, and the fluorescence (excitation at 495 nm and emission at 528 nm) was measured in a microplate reader (Synergy HT, BIO-TEK Instruments, Inc., Winooski, VT, USA). Kinetic readings were initiated immediately after the addition of APF. Obtained values correspond to the slope measured between 5 and 15 min. Effects are expressed as the percentage inhibition of APF oxidation. The results obtained represent at least three independent experiments.
APF is a non-ﬂuorescent derivative of ﬂuorescein, which is oxidized by HOCl, [20] ONOO-, and HO• [21] in a concentration- dependent manner. Its selectivity was tested using the myeloperoxidase (MPO) inhibitor, 4-aminobenzoic acid hydrazide (ABAH). The addition of ABAH to human neutrophils, stimulated with PMA, decreased the APF-dependent ﬂuorescence signal to the level of the control assay, ruling out the involvement of HO• and ONOO− [22]. The previously established methodology for monitoring oxidative burst modulation was adapted. In a 96-well plate, neutrophils (2 x 10^6 cells/mL) were incubated in the dark at 37 °C for 5 minutes with APF (2 µM) and the tested compounds (10 - 100 µM) or DMSO (4%). Quercetin (0.3 - 5.0 µM) and DPI (0.01 - 10 µM) were used as positive and negative controls, respectively. After incubation, PMA (160 nM) was added, and the ﬂuorescence (excitation at 495 nm and emission at 528 nm) was measured in a microplate reader (Synergy HT, BIO-TEK Instruments, Inc., Winooski, VT, USA). Kinetic readings were initiated immediately after the addition of APF. Obtained values correspond to the slope measured between 5 and 15 minutes. Eﬀects are expressed as the percentage inhibition of APF oxidation. The obtained results represent at least three independent experiments. […]
(§1) GraphPad Prism 6 software was used to plot the inhibition percentage versus compound concentration curves, enabling the determination of the concentration required to achieve 50% inhibition (IC50). GraphPad Prism 6 software was also used to perform all statistical analyses.
(§2) […] was estimated by applying the one-way analysis (ANOVA), followed by the Bonferroni’s multiple comparisons test. In all cases, p-values < 0.05 were considered statistically signiﬁcant. The results are expressed as mean ± standard error of the mean (SEM).

[2] = tested on: PMA-stimulated human neutrophils; assay: H2O2 generation by PMA-stimulated neutrophils, oxidation of Amplex Red; assay type: cell-based; settings: PMA 160 nM, mean ± SEM
Experimental: Amplex Red is a highly sensitive and chemically stable fluorescent probe for the extracellular detection of H2O2 [82]. The methodology used previously for monitoring the modulation of the oxidative burst was adapted. In a 96-well plate, neutrophils (2 × 10^6 cells/mL) were incubated in the dark at 37 °C for 5 min with Amplex Red (25 μM), horseradish peroxidase (0.25 U/mL), and the compounds under study (10–100 μM) or DMSO (4%). Quercetin (0.3–5.0 μM) and DPI (0.01–10 μM) were used as controls. After incubation, PMA (160 nM) was added, and the fluorescence (excitation at 530 nm and emission at 590 nm) was measured in a microplate reader (Synergy HT, BioTek Instruments, Inc., Winooski, VT, USA). Obtained values correspond to the slope measured between 5 and 10 min. Effects are expressed as the percentage inhibition of Amplex Red oxidation. The results obtained represent at least three independent experiments. […] 3.4.3 Oxidation of Amplex Red
Amplex Red is a highly sensitive and chemically stable ﬂuorescent probe for the extracellular detection of H2O2 [16]. The methodology used previously for monitoring the modulation of the oxidative burst was adapted.
In a 96-well plate, neutrophils (2 x 10^6 cells/mL) were incubated in the dark at 37 °C for 5 minutes with Amplex Red (25 µM), horseradish peroxidase (0.25 U/mL) , and the compounds under study (10 - 100 µM) or DMSO (4%). Quercetin (0.3 - 5.0 µM) and DPI (0.01 - 10 µM) were used as positive controls for inhibition. After incubation, PMA (160 nM) was added, and the ﬂuorescence (excitation at 530 nm and emission at 590 nm) was measured in a microplate reader (Synergy HT, BioTek Instruments, Inc., Winooski, VT, USA). Obtained values correspond to the slope measured between 5 and 10 minutes. Eﬀects are expressed as the percentage inhibition of Amplex Red oxidation. The obtained results represent at least three independent experiments.
as §1, §2

**Q.** Which “APF: highest obtained % of inhibition” value ([1]; at 50 µM) does the source give for “3-Hydroxy-2-(galactopyranosyl)propyl dodecanoate [Compound 1e]” here?
**A.** The value was <20% ^50µM.

**Q.** And the “Amplex Red: highest obtained % of inhibition” value ([2]; at 50 µM)?
**A.** Its value is <20% ^50µM.

**Q.** With “3-Hydroxy-2-galactopyranosylpropyl dioctyl phosphate [Compound 1b]” as the molecule, how does the “APF: highest obtained % of inhibition” value ([1]; at 25 µM) read?
**A.** The value was 29 ± 10% ^25µM.

**Q.** And the “Amplex Red: highest obtained % of inhibition” value ([2]; at 25 µM)?
**A.** Its value is <20% ^25µM.

**Q.** `OCC(CO)OC1OC(CO)C(O)C(O)C1O` [Compound 1a, 2-O-D-(galactopyranosyl)glycerol] was tested. Which inhibition at 50 µM ([1]; Homo sapiens, Neutrophil, at 50 µM, read-out: APF: highest obtained % of inhibition) did it give?
**A.** The inhibition at 50 µM was 27 ± 6%.

**Q.** And the inhibition at 50 µM ([2]; Homo sapiens, Neutrophil, at 50 µM, read-out: Amplex Red: highest obtained % of inhibition)?
**A.** Its inhibition at 50 µM is < 20%.

**Q.** Which results are given for `CCCCCCCCCCCC(=O)OCC(CO)OC1OC(COP(=O)(OCCN)OCCN)C(O)C(O)C1O` (centres unmarked) [Compound 1h, 2-(6-(bis(2-Aminoethoxy))phosphoryl)galactopyranosyl-3-hydroxypropyl dodecanoate]?
**A.** inhibition at 25 µM ([1]; Homo sapiens, Neutrophil, at 25 µM, read-out: APF: highest obtained % of inhibition): < 20%; inhibition at 25 µM ([2]; Homo sapiens, Neutrophil, at 25 µM, read-out: Amplex Red: highest obtained % of inhibition): < 20%
